The pIC50 is the IC50 on a negative log10 scale, so that one unit is a factor of ten. The term inhibition denotes the share of the control response that was lost under treatment.

The source of these data is patent US6919328B1, “Tricyclic compounds with NOS activity” (Neuraxon Inc., priority 2001, dated 2005).

pIC50: −log10 of the molar value. Structures can show the parent of a compound that is named as a salt.

Assay [1] addresses nNOS (Homo sapiens, UniProt P29475). As to the kind of experiment: nNOS enzyme assay (hemoglobin capture assay). Type of assay: biochemical. The conditions noted are these: for pIC50: hemoglobin capture assay, initial velocity, read-out: IC50 of NOS, nNOS; for inhibition at 100 µM: read-out: Percent Inhibition of NOS, nNOS. On the procedure:
(§1) The generation of nitric oxide by NOS was measured using the hemoglobin capture assay (Proc. Natl. Acad. Sci., U.S.A. 1990, 87, 714). As assay mixture for nNOS contained […], 1.6 mM CaCl2, […] calmoduline, […], 6.5 mM BH4 and 3 mM oxyhemoglobin in 100 mM Hepes (pH 7.5). The reaction mixture for iNOS contained 10 mM of L-arginine, […], 6.5 mM BH4 and 3 mM oxyhemoglobin in 100 mM Hepes (pH 7.5). All assays were in a final volume of […] and were initiated with enzyme. Nitric oxide reacts with oxyhemoglobin to yield methehemoglobin which is detected at 401 nm (e=19,700 M^−1cm^−1) on a Perkin-Elmer Lamda 10 UV/vis spectrophotometer.
(§2) IC50 and percent inhibition of NOS by the compounds of the invention was determined under initial velocity measurement condition with hemoglobin capture assay as described above using varying concentrations of the compounds of the invention.

In assay [2] the target is iNOS (Homo sapiens, UniProt P35228). Put plainly: iNOS enzyme assay (hemoglobin capture assay). Type of assay: biochemical. The conditions noted are these: for pIC50: hemoglobin capture assay, initial velocity, read-out: IC50 of NOS, iNOS; for inhibition at 100 µM: read-out: Percent Inhibition of NOS, iNOS. As to the method: as §1, §2

For the molecule `CC(=O)Nc1ccc2c(c1)C(=O)Nc1ccccc1N2` [Example 7, N-(11-Oxo-10,11-dihydro-5H-dibenzo[b,e][1,4]diazepin-2-yl)-acetamide], the figures for the negative-log IC50 (pIC50) in assay [1] and in assay [2] were 3.40 and 3.30, respectively.

For the molecule `O=C(NC(=S)Nc1ccc2c(c1)C(=O)Nc1ccccc1N2)c1ccccc1` [Example 8, 1-Benzoyl-3-(11-oxo-10,11-dihydro-5H-dibenzo[b,e][1,4]diazepin-2-yl)-thiourea], the results for the negative-log IC50 (pIC50) in assay [1] and in assay [2] were 3.92 and 3.52, respectively.

As to `CC(=N)Nc1ccc2c(c1)C(=O)Nc1ccccc1N2` [Example 11, N-(11-Oxo-10,11-dihydro-5H-dibenzo[b,e][1,4]diazeoin-2-yl)-acetamidine hydrobromide], the pIC50 was 3.70 in assay [1] and 3.30 in assay [2].

Take `CCSC(=N)Nc1ccc2c(c1)C(=O)Nc1ccccc1N2` [Example 10, 2-Ethyl-1-(11-oxo-10,11-dihydro-5H-dibenzo[b,e][1,4]diazepin-2-yl)-isothiourea]: the figures for the negative-log IC50 (pIC50) in assay [1] and in assay [2] were 4.70 and 4.00, respectively.

Take `NC(=S)Nc1ccc2c(c1)C(=O)Nc1ccccc1O2` [Example 16, (11-Oxo-10,11-dihydro-dibenzo[b,f][1,4]oxazepin-2-yl)-thiourea]: the pIC50 in assay [1] is 3.70; in assay [2], 3.82.

Consider `N=C(Nc1ccc2c(c1)C(=O)Nc1ccccc1N2)SCc1ccccc1` [Example 13, 2-Benzyl-1-(11-oxo-10,11-dihydro-5H-dibenzo[b,e][1,4]diazepin-2-yl)-isothiourea], for which the values for the inhibition at 100 µM in assay [1] and in assay [2] were 48% and 29%, respectively.

On to `CC(=N)Nc1ccc2c(c1)C(=O)Nc1ccccc1O2` [Example 14, N-(11-Oxo-10,11-dihydro-dibenzo[b,f][1,4]oxazepin-2-yl)-acetamidine], for which the negative logarithm of the IC50 (pIC50) in assay [1] is 3.70; in assay [2], 3.52.

Consider `NC(=S)Nc1ccc2c(c1)C(=O)Nc1ccccc1N2` [Example 9, (11-Oxo-10,11-dihydro-5H-dibenzo[b,e][1,4]diazepin-2-yl)-thiourea], for which the negative logarithm of the IC50 (pIC50) in assay [1] was 3.60; in assay [2], 3.52.

On to `N=C(Nc1ccc2c(c1)C(=O)Nc1ccccc1N2)c1cccs1` [Example 19, N-(11-Oxo-10,11-dihydro-5H-dibenzo[b,e][1,4]diazepin-2-yl)-thiophene-2-carboxamidine hydrobromide], for which the figures for the inhibition at 100 µM in assay [1] and in assay [2] were 42% and 17%, respectively.

Consider `O=C1Nc2ccccc2Oc2ccc(NC(=S)Nc3ccccc3)cc21` [Example 17, 1-(11-Oxo-10,11-dihydro-dibenzo[b,f][1,4]oxazegin-2-yl)-3-phenyl-thiourea], for which the figures for the inhibition at 100 µM in assay [1] and in assay [2] were 7% and 24%, respectively.

Take `O=C(NC(=S)Nc1ccc2c(c1)C(=O)Nc1ccccc1O2)c1ccccc1` [Example 15, 1-Benzoyl-3-(11-oxo-10,11-dihydro-dibenzo[b,f][1,4]oxazepin-2-yl)-thiourea]: the values for the pIC50 in assay [1] and in assay [2] were 4.00 and 3.70, respectively.

With `N=C(Nc1ccc2c(c1)C(=O)Nc1ccccc1N2)SCc1ccc2ccccc2c1` [Example 12, 2-Naphthalen-2-ylmethyl-1-(11-oxo-10,11-dihydro-5H-dibenzo[b,e][1,4]diazepin-2-yl)-isothiourea], the inhibition at 100 µM was 21% in assay [1] and 28% in assay [2].

On to `N=C(Nc1ccc2c(c1)C(=O)Nc1ccccc1O2)c1cccs1` [Example 18, N-(11-Oxo-10,11-dihydro-dibenzo[b,f][1,4]oxazepin-2-yl)-thiophene-2-carboxamidine hyrobromide], for which the values for the inhibition at 100 µM in assay [1] and in assay [2] were 25% and 14%, respectively.
